This note sets out measurements from patent US20230106032A1, “IMIDAZOTRIAZINES ACTING ON CANCER VIA INHIBITION OF CDK12” (Bayer Aktiengesellschaft, priority 2020, published 2023).

Assay [1] has as its system BRCA1 mRNA expression in MDA-MB-231 cells. Put plainly: qRT-PCR assay: inhibition of BRCA1 mRNA expression in MDA-MB-231 cells. It counts as cell-based. The following applies: Homo sapiens, 24 h exposure, normalised to GAPDH, read-out: RTqPCR-MDA-MB-231 IC50 [mol/l] BRCA1 (median). The method, then:
Tissue cultured human MDA-MB-231 human breast cancer cells were plated in 500 microL per well at 200,000 cells/well in a 24 well microtiter plate. After 24 h, the cells were exposed continuously for 24 h to test substances (substances were added with Tecan HP D300 Dispenser). RNA was prepared using Qiagen RNeasy MiniKit (#74106), RNA was quantified using a NanoDrop Equipment, and 600 nano gamms of RNA was converted to cDNA using a SuperScript VILO kit (Thermofisher #11755050) followed by qPCR amplification. BRCA1 and ATR gene expression was measured by RT-qPCR and normalised to GAPDH housekeeping gene expression. qPCR primer sets have been purchased from Thermo Fisher Scientific/Applied Biosystems: BRCA1, #Hs 01556193; ATR, #Hs 00992123; GAPDH, #Hs 03929097.

Assay [2] has as its target T1, CDK12 (Homo sapiens, UniProt Q9NYV4).
T1 construct: endogenous in cells; host or cells: CAL-120 human breast cancer cells (DSMZ ACC 459)
Put plainly: CDK12 nuclear protein level: immunofluorescence/high content analysis in CAL-120 cells. It counts as cell-based. The note with it: for DC50: CAL-120 cells, 24 h, nuclear CDK12 staining, read-out: CDK12 degradation IF DC50-[mol/l] (median); for (IC50 CDK12 high ATP) to (Degradation DC50 CDK12) ratio: IC50 CDK12 hATP (Table 2) divided by DC50 CDK12 IF (Table 8). The method, then:
In the context of the present invention, the term “DC50 CDK12” refers to the DC50 values obtained according to the assay described in this section (6) herein below, i.e. the DC50 values for the degradation of CDK12.
(§1) CAL-120 human breast cancer cells (DSMZ ACC 459) are seeded in 1536-well microtiter plates (800 cells per well) containing 50 nanoL of compounds in Dose-Response. Control wells received DMSO or Reference Example 1. Plates are then incubated for 24 h at 37° C. in an humidified incubator and fixed with 4% PFA for 10 min. Then immunofluorescence (IF) against CDK12 (CellSignalling CDK12 Antibody #11973, rabbit, 1:100 dilution) is performed using standard IF protocols. Cells are then stained with Hoechst 33342 (Life Technologies, H-1399, 0.1 microg/ml) and imaged on an automated confocal microscopy system (e.g. Perkin Elmer Opera Phenix). Nuclear and cytoplasmic intensity as well as the nuclear/cytoplasmic intensity ratio is determined by automated image analysis using custom generated scripts (MetaXpress). Data is then transferred to Genedata Screener software, normalized to DMSO and control and DC50 values (degrading concentration to achieve 50% reduction of nuclear CDK12 staining intensity relative to controls) are reported.

For assay [3], the system named is CYCLIN K. The assay can be described thus: CYCLIN K nuclear protein level: immunofluorescence/high content analysis in CAL-120 cells. It counts as cell-based, human. The following applies: 24 h, nuclear CCNK staining, read-out: CYCLIN K degradation IF, DC50-[mol/l] (median). The procedure: In the context of the present invention, the term “DC50 Cyclin K” refers to the DC50 values obtained according to the assay described in this section (7) herein below, i.e. the DC50 values for the degradation of Cyclin K.
as §1, with “CYCLIN K (ThermoFisher Scientific CCNK” for “CDK12 (CellSignalling CDK12”, “#PA5-85020,” for “#11973,”, “1:200” for “1:100”, “CCNK” for “CDK12”

Assay [4] relates to CAL-120 human breast adenocarcinoma cells. Put plainly: Proliferation assay CAL-120 (crystal violet). It counts as cell-based. The note with it: 96 h, CAL-120 cells, 4 days, read-out: Prolif-CAL-120_ IC50-[mol/l] (median). The procedure: Human tumour cells were originally obtained from the American Type Culture Collection (ATCC), or from the Deutsche Sammlung von Mikroorganismen und Zellkulturen (DSMZ, German Collection of Microorganisms and Cell Cultures). Cultivated tumour cells (CAL-120, human breast adenocarcinoma cells, DSMZ ACC-459; MDA-MB-231, human breast cancer cells, ATCC HTB-26) were plated at a density of 4,000 cells/well in a 96-well multititer plate in 200 microL of their respective growth medium supplemented 10% fetal calf serum. After 24 hours, the cells of one plate (zero-point plate) were stained with crystal violet (see below), while the medium of the other plates was supplemented with the test substances in various concentrations (0 micromol/L, as well as in the range of 0.01-10 micromol/L; the final concentration of the solvent dimethyl sulfoxide was adjusted to 0.1%) using a Tecan HP D300 Digital Dispenser. The cells were incubated for 4 days in the presence of test substances. Cell proliferation was determined by staining the cells with crystal violet: the cells were fixed by adding 20 microL/measuring point of an 11% glutaric aldehyde solution for 15 minutes at room temperature. After three washing cycles of the fixed cells with water, the plates were dried at room temperature. The cells were stained by adding 100 microL/measuring point of a 0.1% crystal violet solution (pH 3.0). After three washing cycles of the stained cells with water, the plates were dried at room temperature. The dye was dissolved by adding 100 microL/measuring point of a 10% acetic acid solution. The extinction was determined by photometry at a wavelength of 595 nm. The change of cell number, in percent, was calculated by normalization of the measured values to the extinction values of the zero-point plate (=0%) and the extinction of the untreated (0 μM) cells (=100%). The IC50 values (inhibitory concentration at 50% of maximal effect) were determined by means of a 4 parameter fit.

Each structure is given as a SMILES string. pIC50: −log10 of the molar value.

T1 sequence (Q9NYV4 whole entry): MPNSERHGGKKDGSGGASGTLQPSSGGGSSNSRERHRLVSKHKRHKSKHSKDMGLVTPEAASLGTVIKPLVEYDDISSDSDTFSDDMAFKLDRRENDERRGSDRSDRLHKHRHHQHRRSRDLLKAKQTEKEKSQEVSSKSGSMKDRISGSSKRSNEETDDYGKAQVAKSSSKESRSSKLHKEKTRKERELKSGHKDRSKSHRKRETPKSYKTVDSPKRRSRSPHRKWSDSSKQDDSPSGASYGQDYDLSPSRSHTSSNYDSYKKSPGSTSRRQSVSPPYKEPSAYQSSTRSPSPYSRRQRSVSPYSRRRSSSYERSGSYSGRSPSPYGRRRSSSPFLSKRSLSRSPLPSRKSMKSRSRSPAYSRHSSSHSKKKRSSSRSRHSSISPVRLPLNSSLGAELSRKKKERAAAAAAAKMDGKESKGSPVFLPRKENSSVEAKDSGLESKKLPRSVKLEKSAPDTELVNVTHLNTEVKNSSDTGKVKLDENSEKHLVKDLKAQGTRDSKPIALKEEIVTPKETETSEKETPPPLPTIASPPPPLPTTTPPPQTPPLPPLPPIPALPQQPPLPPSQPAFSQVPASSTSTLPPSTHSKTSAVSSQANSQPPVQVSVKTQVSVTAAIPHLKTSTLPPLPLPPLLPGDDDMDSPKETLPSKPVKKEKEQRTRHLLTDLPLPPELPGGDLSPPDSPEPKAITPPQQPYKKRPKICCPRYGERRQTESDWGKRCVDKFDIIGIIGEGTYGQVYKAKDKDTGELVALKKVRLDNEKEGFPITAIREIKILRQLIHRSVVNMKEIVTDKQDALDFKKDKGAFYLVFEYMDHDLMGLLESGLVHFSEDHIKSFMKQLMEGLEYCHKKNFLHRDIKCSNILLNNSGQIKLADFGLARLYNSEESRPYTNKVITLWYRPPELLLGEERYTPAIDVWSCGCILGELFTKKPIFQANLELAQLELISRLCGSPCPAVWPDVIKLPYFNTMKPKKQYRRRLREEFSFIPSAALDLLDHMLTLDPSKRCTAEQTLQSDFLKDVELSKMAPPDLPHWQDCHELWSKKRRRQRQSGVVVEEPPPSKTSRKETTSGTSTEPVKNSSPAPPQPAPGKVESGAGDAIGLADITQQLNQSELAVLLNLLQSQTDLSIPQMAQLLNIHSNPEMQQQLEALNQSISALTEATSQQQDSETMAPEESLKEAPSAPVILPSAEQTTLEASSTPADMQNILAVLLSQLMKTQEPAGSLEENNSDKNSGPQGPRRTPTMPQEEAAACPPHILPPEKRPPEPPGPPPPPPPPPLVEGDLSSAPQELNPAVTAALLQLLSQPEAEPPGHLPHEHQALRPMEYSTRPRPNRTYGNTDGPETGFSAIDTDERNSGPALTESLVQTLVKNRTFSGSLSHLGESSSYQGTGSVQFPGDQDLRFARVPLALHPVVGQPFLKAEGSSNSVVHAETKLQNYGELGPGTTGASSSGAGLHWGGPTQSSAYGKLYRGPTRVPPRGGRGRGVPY
T1 sequence (O75909 whole entry partner): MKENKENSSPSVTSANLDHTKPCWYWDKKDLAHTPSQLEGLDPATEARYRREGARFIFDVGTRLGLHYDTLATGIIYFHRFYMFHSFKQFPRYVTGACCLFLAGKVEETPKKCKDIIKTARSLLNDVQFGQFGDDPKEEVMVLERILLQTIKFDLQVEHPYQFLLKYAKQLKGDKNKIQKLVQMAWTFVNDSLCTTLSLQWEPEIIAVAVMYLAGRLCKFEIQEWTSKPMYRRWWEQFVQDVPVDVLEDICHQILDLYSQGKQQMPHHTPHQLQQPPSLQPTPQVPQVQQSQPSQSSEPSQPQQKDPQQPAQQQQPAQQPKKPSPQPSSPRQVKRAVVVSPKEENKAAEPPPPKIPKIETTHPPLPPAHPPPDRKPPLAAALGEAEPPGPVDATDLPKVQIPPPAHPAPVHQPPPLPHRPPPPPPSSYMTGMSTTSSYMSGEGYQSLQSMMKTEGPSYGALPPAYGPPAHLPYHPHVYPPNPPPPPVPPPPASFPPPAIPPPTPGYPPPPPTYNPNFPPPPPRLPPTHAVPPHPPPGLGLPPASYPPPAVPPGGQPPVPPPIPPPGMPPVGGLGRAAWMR

Turning to `Brc1cnc2c(NCc3nc4ccccc4[nH]3)nc(N3CCOCC3)nn12` [Example 1, N-[(1H-benzimidazol-2-yl)methyl]-7-bromo-2-(morpholin-4-yl)imidazo[2,1-f][1,2,4]triazin-4-amine], the pIC50 in assay [1] is 8.00. Besides, the DC50 in assay [2] amounted to 6.8 nM; in assay [3], 0.876 nM. Moreover, the “(IC50 CDK12 high ATP) to (Degradation DC50 CDK12) ratio” value in assay [2] was 751.

In the case of `N#Cc1cnc2c(NCc3nc4ccccc4[nH]3)nc(N3CCOCC3)nn12` [Example 2, 4-{[(1H-benzimidazol-2-yl)methyl]amino}-2-(morpholin-4-yl)imidazo[2,1-f][1,2,4]triazine-7-carbonitrile], the pIC50 is 7.95 in assay [1] and 6.99 in assay [4]. Besides, the DC50 stood at 4.83 nM in assay [2] and 3.58 nM in assay [3]. Also, the “(IC50 CDK12 high ATP) to (Degradation DC50 CDK12) ratio” value in assay [2] is 1444.

As for `Fc1cccc(-c2cnc3c(NCc4nc5ccccc5[nH]4)nc(N4CCOCC4)nn23)c1` [Example 3, N-[(1H-benzimidazol-2-yl)methyl]-7-(3-fluorophenyl)-2-(morpholin-4-yl)imidazo[2,1-f][1,2,4]triazin-4-amine], the pIC50 in assay [1] is < 7.00. For the same compound, in assay [2], the DC50 came to 36 nM and the “(IC50 CDK12 high ATP) to (Degradation DC50 CDK12) ratio” value is reported as >556. Further, the DC50 in assay [3] is 23.9 nM.

For `C[C@@H]1CN(c2nc(NCc3nc4ccccc4[nH]3)c3ncc(Br)n3n2)C[C@H](C)O1` [Example 4, N-[(1H-benzimidazol-2-yl)methyl]-7-bromo-2-[rel-(2R,6S)-2,6-dimethylmorpholin-4-yl]imidazo[2,1-f][1,2,4]triazin-4-amine], the pIC50 in assay [1] is 7.59; in assay [4], 7.27. For the same compound, the DC50 in assay [2] was 13 nM; in assay [3] it was 1.14 nM. In assay [2], the “(IC50 CDK12 high ATP) to (Degradation DC50 CDK12) ratio” value is listed as 76.

Take `C[C@@H]1CN(c2nc(NCc3nc4c(F)c(F)ccc4[nH]3)c3ncc(Br)n3n2)C[C@H](C)O1` [Example 5, 7-bromo-N-[(4,5-difluoro-1H-benzimidazol-2-yl)methyl]-2-[rel-(2R,6S)-2,6-dimethylmorpholin-4-yl]imidazo[2,1-f][1,2,4]triazin-4-amine]: the pIC50 was 8.19 in assay [1] and 8.10 in assay [4]. The values for the DC50 in assay [2] and in assay [3] were 2.07 nM and 1.16 nM, respectively. In addition, in assay [2], the “(IC50 CDK12 high ATP) to (Degradation DC50 CDK12) ratio” value stood at 66.

As for `CN1CCN(c2nc(NCc3nc4ccccc4[nH]3)c3ncc(Br)n3n2)CC1` [Example 6, N-[(1H-benzimidazol-2-yl)methyl]-7-bromo-2-(4-methylpiperazin-1-yl)imidazo[2,1-f][1,2,4]triazin-4-amine], the pIC50 in assay [1] was 7.16; in assay [4] it was 7.21. Moreover, the DC50 in assay [2] came out at 3.84 nM; in assay [3], 2.31 nM. Besides, the “(IC50 CDK12 high ATP) to (Degradation DC50 CDK12) ratio” value in assay [2] was >4836.

Turning to `Fc1ccc2[nH]c(CNc3nc(N4CCOCC4)nn4c(Br)cnc34)nc2c1F` [Example 7, 7-bromo-N-[(4,5-difluoro-1H-benzimidazol-2-yl)methyl]-2-(morpholin-4-yl)imidazo[2,1-f][1,2,4]triazin-4-amine], the pIC50 in assay [1] is 8.20; in assay [4], 8.07. Besides, the figures for the DC50 in assay [2] and in assay [3] were 0.992 nM and 0.201 nM, respectively. Moreover, the “(IC50 CDK12 high ATP) to (Degradation DC50 CDK12) ratio” value in assay [2] was found to be 1272.

Take `Brc1cnc2c(NCc3nc4ccccc4[nH]3)nc(N3CCNCC3)nn12` [Example 8, N-[(1H-benzimidazol-2-yl)methyl]-7-bromo-2-(piperazin-1-yl)imidazo[2,1-f][1,2,4]triazin-4-amine]: the pIC50 is 8.47 in assay [1] and 8.49 in assay [4]. Moreover, the DC50 in assay [2] came out at 0.527 nM; in assay [3], 1.28 nM. In addition, in assay [2], the “(IC50 CDK12 high ATP) to (Degradation DC50 CDK12) ratio” value is given as 10707.

In the case of `C[C@@H]1CN(c2nc(NCc3nc4ccccc4[nH]3)c3ncc(Br)n3n2)C[C@H](C)N1` [Example 9, N-[(1H-benzimidazol-2-yl)methyl]-7-bromo-2-[rel-(3R,5S)-3,5-dimethylpiperazin-1-yl]imidazo[2,1-f][1,2,4]triazin-4-amine], the pIC50 in assay [1] is 8.45; in assay [4], 8.69. The DC50 in assay [2] worked out at 0.575 nM; in assay [3], 0.111 nM. Moreover, in assay [2], the “(IC50 CDK12 high ATP) to (Degradation DC50 CDK12) ratio” value is recorded as 8519.

Consider `Fc1ccc2[nH]c(CNc3nc(N4CCNCC4)nn4c(Br)cnc34)nc2c1F` [Example 10, 7-bromo-N-[(4,5-difluoro-1H-benzimidazol-2-yl)methyl]-2-(piperazin-1-yl)imidazo[2,1-f][1,2,4]triazin-4-amine], for which the pIC50 in assay [1] was 9.26; in assay [4], 9.07. Besides, the DC50 in assay [2] is 0.132 nM; in assay [3], 0.0632 nM. In addition, in assay [2], the “(IC50 CDK12 high ATP) to (Degradation DC50 CDK12) ratio” value was 10329.

As for `Fc1cccc2[nH]c(CNc3nc(N4CCOCC4)nn4c(Br)cnc34)nc12` [Example 12, 7-bromo-N-[(4-fluoro-1H-benzimidazol-2-yl)methyl]-2-(morpholin-4-yl)imidazo[2,1-f][1,2,4]triazin-4-amine], in assay [2], the DC50 is 4.35 nM and the “(IC50 CDK12 high ATP) to (Degradation DC50 CDK12) ratio” value is reported as 1084. For the same compound, the DC50 in assay [3] is 0.292 nM. Also, in assay [4], the pIC50 was 7.30.

As to `CN(CC(C)(C)O)c1nc(NCc2nc3ccccc3[nH]2)c2ncc(C(F)(F)F)n2n1` [Example 30, 1-[{4-[(1H-benzimidazol-2-ylmethyl)amino]-7-(trifluoromethyl)imidazo[2,1-f][1,2,4]triazin-2-yl}(methyl)amino]-2-methylpropan-2-ol], the pIC50 in assay [1] was 8.14. In addition, in assay [2], the DC50 came out at 13.8 nM and the “(IC50 CDK12 high ATP) to (Degradation DC50 CDK12) ratio” value was found to be 12. For the same compound, in assay [4], the pIC50 was 8.00.
